Reference: patent publication US4868208A, “Antifungal agent and method” (Merck & Co., Inc., priority 1988, dated 1989)

System: Cryptococcus neoformans
Assay: Agar dilution assay (MIC) against an expanded panel of 84 Cryptococcus neoformans strains
Type: cell-based
Conditions: 84 Cryptococcus neoformans isolates, yeast nitrogen base dextrose agar, 0.008 to 16.0 μg/ml
Procedure: Such activity may be illustrated with test results against Cryptococcus neoformans employing yeast nitrogen base dextrose agar medium. In carrying out the assay, Compound Ia' was solubilized in 10 percent dimethyl sulfoxide (DMSO) supplemented with one drop of Tween 20. Twofold dilutions were made with sterile distilled water/10 percent DMSO to obtain final drug concentrations in the agar dilution assay plates ranging from 0.008 to 16.0 μg/ml against an expanded panel of 84 Cryptococcus neoformans strains.
The minimum inhibitory concentration against the expanded panel of 84 Cryptococcus neoformans isolates may be summarized as follows: […]

COC(=O)C(C)CNC(=O)C(Cc1ccc(OC)c(Cl)c1)NC(=O)C=CCC(OC(=O)C(O)CC(C)C)C(C)C1OC1c1ccccc1 (stereo not drawn) [Compound Ia', 5-[[2-[[2-(methoxycarbonyl)propyl]amino]-1-[(3-chloro-4-methoxyphenyl)methyl]-2-oxoethyl]amino]-5-oxo-1-[1-(3-phenyloxiranyl)ethyl]-3-pentenyl 2-hydroxy-4-methylpentanoate]
MIC50 (concentration at which 50% of the strains were inhibited): 8.0 µg/mL
MIC90 (concentration at which 90% of the strains were inhibited): 8.0 µg/mL
G-MIC (geometric means of MIC) (10 percent DMSO/Tween 20): > 6.11 µg/mL
